Values quoted from earlier work in patent US20260345483A1, “Pharmaceutical Formulation” (Klaria Pharma Holding AB, priority 2018, published 2026).

Assays:
[1] = tested on: porcine buccal epithelium; conditions: enhancer concentration, ref [6]
[2] = aqueous solution, ref [4]
[3] = subcutaneous injection compared with intramuscular injection, ref [3]

| enhanced permeability with porcine buccal epithelium [1] | pH of acceptable adrenaline stability [2] | pH of optimal adrenaline stability [2] | time of peak plasma concentration [3] | SMILES |
| --- | --- | --- | --- | --- |
| 1-10% | – | – | – | CCCCCCCC/C=C\CCCCCCCC(=O)O [Oleic acid, oleic acid] |
| – | < 5.5 | 3-4 | significantly delayed | CNCC(O)c1ccc(O)c(O)c1 (stereo not shown) [adrenaline] |
